The text below walks through data of patent US20210269451A1, “PYRIDINYL HETEROCYCLYL COMPOUNDS FOR THE TREATMENT OF AUTOIMMUNE DISEASE” (Hoffmann-La Roche Inc., priority 2018, published 2021).

For the assay, the target named is T1, human TLR7 (Homo sapiens, UniProt Q9NYK1).
T1 construct: host or cells: HEK293-Blue-hTLR-7 (HEK293)
T1 sequence (Q9NYK1 27-1049): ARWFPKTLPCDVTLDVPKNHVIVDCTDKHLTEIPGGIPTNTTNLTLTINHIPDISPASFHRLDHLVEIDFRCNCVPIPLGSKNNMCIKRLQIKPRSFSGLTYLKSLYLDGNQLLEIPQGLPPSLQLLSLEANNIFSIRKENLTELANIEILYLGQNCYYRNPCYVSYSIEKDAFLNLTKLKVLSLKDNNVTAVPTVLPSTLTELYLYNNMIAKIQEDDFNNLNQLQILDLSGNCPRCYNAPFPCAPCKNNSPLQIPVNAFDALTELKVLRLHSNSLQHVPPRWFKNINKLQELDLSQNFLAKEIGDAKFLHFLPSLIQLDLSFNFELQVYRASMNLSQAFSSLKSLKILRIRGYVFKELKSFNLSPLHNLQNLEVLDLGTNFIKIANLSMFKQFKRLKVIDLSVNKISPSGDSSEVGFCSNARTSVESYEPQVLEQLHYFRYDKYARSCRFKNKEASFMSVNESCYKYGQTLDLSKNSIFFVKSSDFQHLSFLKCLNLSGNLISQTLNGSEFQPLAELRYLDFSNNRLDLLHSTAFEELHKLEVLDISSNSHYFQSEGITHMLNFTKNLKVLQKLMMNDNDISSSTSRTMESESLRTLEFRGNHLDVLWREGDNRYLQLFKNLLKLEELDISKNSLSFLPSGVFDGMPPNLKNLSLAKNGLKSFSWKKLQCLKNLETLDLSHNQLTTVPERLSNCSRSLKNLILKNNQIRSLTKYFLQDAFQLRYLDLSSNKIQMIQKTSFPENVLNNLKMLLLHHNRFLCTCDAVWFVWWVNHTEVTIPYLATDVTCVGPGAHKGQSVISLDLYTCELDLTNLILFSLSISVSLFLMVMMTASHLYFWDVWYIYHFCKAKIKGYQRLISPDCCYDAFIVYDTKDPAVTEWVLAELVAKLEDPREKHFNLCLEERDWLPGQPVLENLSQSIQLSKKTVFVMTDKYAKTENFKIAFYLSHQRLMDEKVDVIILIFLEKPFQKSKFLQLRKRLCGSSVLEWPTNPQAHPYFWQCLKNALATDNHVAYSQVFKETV
Kind of assay: HEK293-Blue-hTLR-7 cells assay. Format: cell-based. The conditions noted are these: HEK293-Blue-hTLR7 cells, R848 stimulation, 20 hrs, SEAP reporter; read-out: HEK/hTLR7 IC50. The method, then:
The following tests were carried out in order to determine the activity of the compounds of formula (I) and (Ia) in HEK293-Blue-hTLR-7/8/9 cells assay.
HEK293-Blue-hTLR-7 cells assay:
A stable HEK293-Blue-hTLR-7 cell line was purchased from InvivoGen (Cat. #: hkb-htlr7, San Diego, Calif., USA). These cells were originally designed for studying the stimulation of human TLR7 by monitoring the activation of NE-κB. A SEAP (secreted embryonic alkaline phosphatase) reporter gene was placed under the control of the IFN-β minimal promoter fused to five NE-κB and AP-1-binding sites. The SEAP was induced by activating NE-κB and AP-1 via stimulating HEK-Blue hTLR7 cells with TLR7 ligands. Therefore the reporter expression was declined by TLR7 antagonist under the stimulation of a ligand, such as R848 (Resiquimod), for incubation of 20 hrs. The cell culture supernatant SEAP reporter activity was determined using QUANTI-Blue™ kit (Cat. #: rep-qbl, Invivogen, San Diego, Ca, USA) at a wavelength of 640 nm, a detection medium that turns purple or blue in the presence of alkaline phosphatase.
HEK293-Blue-hTLR7 cells were incubated at a density of 250,000-450,000 cells/mL in a volume of 170 μL in a 96-well plate in Dulbecco's Modified Eagle's medium (DMEM) containing 4.5 g/L glucose, 50 U/mL penicillin, […], […], 2 mM L-glutamine, 10% (v/v) heat-inactivated fetal bovine serum with addition of 20 μL test compound in a serial dilution in the presence of final DMSO at 1% and 10 μL of 20 uM R848 in above DMEM, perform incubation under 37° C. in a CO2 incubator for 20 hrs. Then 20 μL of the supernatant from each well was incubated with 180 μL Quanti-blue substrate solution at 37° C. for 2 hrs and the absorbance was read at 620˜655 nm using a spectrophotometer. The signalling pathway that TLR7 activation leads to downstream NE-κB activation has been widely accepted, and therefore similar reporter assay was modified for evaluating TLR7 antagonist.

Turning to `Cc1cc(N2CC3(CN(C[C@H]4CN(c5ccc(C#N)c6ncccc56)C[C@@H](C)O4)C3)C2)cc(C(C)O)n1` (stereo partly drawn) [Example 44, 5-[(2S,6R)-2-[[2-[2-(1-hydroxyethyl)-6-methyl-4-pyridyl]-2,6-diazaspiro[3.3]heptan-6-yl]methyl]-6-methyl-morpholin-4-yl]quinoline-8-carbonitrile], the IC50 is 20 nM.

`Cc1cc(C2CCN(C[C@H]3CN(c4ccc(C#N)c5ncccc45)C[C@@H](C)O3)CC2)cc(N)n1` [Example 43, 5-[(2S,6R)-2-[[4-(2-amino-6-methyl-4-pyridyl)-1-piperidyl]methyl]-6-methyl-morpholin-4-yl]quinoline-8-carbonitrile]: the IC50 amounted to 7 nM.

With `Cc1cc(N2CCC[C@H](NC[C@H]3CN(c4ccc(C#N)c5ncccc45)C[C@@H](C)O3)C2)cc(CO)n1` [Example 25], the IC50 turned out to be 34 nM.

In the case of `C[C@@H]1CN(c2ccc(C#N)c3ncccc23)C[C@H](CN2CC3(C2)CN(c2ccnc(CO)c2)CCO3)O1` [Example 51], the IC50 was less than 3 nM.

For the compound `C[C@@H]1CN(c2ccc(C#N)c3ncccc23)C[C@H](CN2CC3(C2)CN(c2ccnc(C(C)(C)O)c2)C3)O1` [Example 48, 5-[(2S,6R)-2[[2-[2-(1-hydroxy-1-methyl-ethyl)-4-pyridyl]-2,6-diazaspiro[3.3]heptan-6-yl]methyl]-6-methyl-morpholin-4-yl]quinoline-8-carbonitrile], the IC50 worked out at 55 nM. Under `C[C@@H]1CN(c2ccc(C#N)c3ncccc23)C[C@H](CN2CCN(c3ccnc(N)c3)CC2)O1` [Example 19, 5-[(2S,6R)-2-[[4-(2-amino-4-pyridyl)piperazin-1-yl]methyl]-6-methyl-morpholin-4-yl]quinoline-8-carbonitrile] stands 6 nM; under `Cc1cc(N(C)C2CN(C[C@H]3CN(c4ccc(C#N)c5ncccc45)C[C@@H](C)O3)C2)cc(C)n1` [Example 11], 8 nM. The result for `Cc1cc(NC2CN(C[C@H]3CN(c4ccc(C#N)c5ncccc45)C[C@@H](C)O3)C2)cc(C)n1` [Example 7] reads 26 nM; that for `C[C@@H]1CN(c2ccc(C#N)c3ncccc23)C[C@H](CN2CC3(C2)CN(c2ccnc(C4CC4)c2)C3)O1` [Example 49, 5-[(2S,6R)-2[[2-(2-cyclopropyl-4-pyridyl)-2,6-diazaspiro[3.3]heptan-6-yl]methyl]-6-methyl-morpholin-4-yl]quinoline-8-carbonitrile], 13 nM. For `Cc1cc(N2CCC23CN(C[C@H]2CN(c4ccc(C#N)c5ncccc45)C[C@@H](C)O2)C3)cc(C)n1` [Example 8], the IC50 was 7 nM. The result for `Cc1cc(NC2CCN(C[C@H]3CN(c4ccc(C#N)c5ncccc45)C[C@@H](C)O3)C2)cc(CO)n1` (some centres unmarked) [Example 6] reads 44 nM.
